Source: DBAASP
Converted amounts (≈) assume the structure as drawn. “And” between values parts separate entries of the source, which are not always exact repeats. Equal values may be shown once.

Legend:
Test in all cases: ≥ marks a high value that may be exact or a test limit, other limits are often not marked, values filed in µg/mL are converted to µM
[1] = test system: Salmonella enterica subsp. enterica serovar Typhimurium ATCC 14028
[2] = test system: Klebsiella pneumoniae ATCC 10031
[3] = test system: Escherichia coli DH5alpha
[4] = test system: Staphylococcus aureus ATCC 25923
[5] = test system: Klebsiella pneumoniae ATCC 13883
Klebsiella pneumoniae = test system: Klebsiella pneumoniae
Acinetobacter baumannii = test system: Acinetobacter baumannii
[6] = test system: Enterococcus faecalis ATCC 29212
[7] = test system: Escherichia coli ATCC 25922
[8] = test system: Salmonella enterica subsp. enterica serovar Typhimurium C77-31
Escherichia coli UB1005 = test system: Escherichia coli UB1005
[9] = test system: Staphylococcus aureus ATCC 29213
[10] = test system: Staphylococcus epidermidis ATCC 12228
[11] = test system: Pseudomonas aeruginosa ATCC 27853
[12] = test system: Staphylococcus aureus ATCC 43300
[13] = test system: Escherichia coli ATCC 25726
[14] = test system: Candida albicans ATCC 90028
[15] = test system: Klebsiella pneumoniae ATCC 700603

SMILES | MIC [1] | MIC [4] [µM] | MIC [5] | MIC [8] [µM] | MIC (Escherichia coli UB1005) [µM] | MIC [10] [µM] | MIC [11] [µM] | other results
CC[C@H](C)[C@@H]1NC(=O)[C@H](CCCCN)NC(=O)[C@@H](NC(=O)[C@@H](NC(=O)[C@@H](NC(=O)[C@@H](NC(=O)[C@@H]2CCCN2C(=O)[C@H](CC(C)C)NC(=O)[C@H](Cc2ccccc2)NC(=O)[C@H](CCCCN)NC(=O)[C@H](C)NC(=O)[C@H](C)NC(=O)[C@H](CC(C)C)NC(=O)[C@H](CCCCN)NC(=O)[C@H](CCCCN)NC(=O)[C@H](CC(C)C)NC(=O)[C@H](CC(C)C)NC(=O)[C@H](CCCCN)NC(=O)[C@H](CC(C)C)NC(=O)[C@@H](N)Cc2ccccc2)[C@@H](C)O)[C@@H](C)CC)[C@@H](C)CC)CSSC[C@@H](C(=O)O)NC(=O)[C@H](CCCCN)NC(=O)[C@H](Cc2ccc(O)cc2)NC(=O)[C@H](CO)NC1=O [FLKLLKKLAAKFLPTIICKISYKC] | 35.9 µM (≈ 99.9 µg/mL) |  |  |  |  |  |  | MIC [2]: ≥ 35.9 µM; MIC [3]: 18 µM (≈ 50 µg/mL)
CC(C)C[C@H](NC(=O)[C@H](CCCN=C(N)N)NC(=O)[C@H](C)NC(=O)[C@H](C)NC(=O)[C@H](Cc1c[nH]c2ccccc12)NC(=O)CNC(=O)[C@H](CCCN=C(N)N)NC(=O)[C@@H](N)CCCN=C(N)N)C(=O)N[C@@H](Cc1ccccc1)C(=O)N[C@@H](C)C(=O)N[C@@H](C)C(=O)N[C@@H](Cc1ccccc1)C(=O)NCC(=O)N[C@@H](CCCN=C(N)N)C(=O)N[C@@H](CCCN=C(N)N)C(N)=O [RRGWAARLFAAFGRR] |  | > 30 | 30 µM (≈ 53.7 µg/mL) |  |  |  |  | MIC (Klebsiella pneumoniae): 1.2 µM (≈ 2.15 µg/mL); MIC (Acinetobacter baumannii): 4.8 µM (≈ 8.59 µg/mL)
CC[C@H](C)[C@H](NC(=O)CNC(=O)[C@H](CO)NC(=O)[C@H](CC(C)C)NC(=O)[C@@H](NC(=O)[C@H](CCCN=C(N)N)NC(=O)CNC(=O)[C@@H](NC(=O)[C@H](CC(C)C)NC(=O)[C@@H]1CCCN1C(=O)[C@H](CC(C)C)NC(=O)[C@@H](N)Cc1ccccc1)[C@@H](C)CC)C(C)C)C(=O)N[C@@H](CC(C)C)C(=O)NCC(=O)N[C@@H](Cc1c[nH]c2ccccc12)C(=O)N[C@@H](CCCCN)C(=O)N[C@@H](CCCN=C(N)N)C(=O)N[C@@H](CCCCN)C(=O)N[C@@H](CCCN=C(N)N)C(=O)N[C@@H](Cc1ccccc1)C(=O)NCC(N)=O [FLPLIGRVLSGILGWKRKRFG] | 5 µM and 10 µM |  | 4 µM and 8 µM |  |  |  |  | MIC [6]: 10 µM (≈ 24.1 µg/mL)
CC(C)C[C@H](NC(=O)[C@H](Cc1c[nH]c2ccccc12)NC(=O)[C@H](CCCCN)NC(=O)[C@H](CCCN=C(N)N)NC(=O)[C@@H](NC(=O)[C@H](Cc1c[nH]c2ccccc12)NC(=O)[C@H](CCCCN)NC(=O)[C@H](CCCN=C(N)N)NC(=O)[C@H](CC(C)C)NC(=O)[C@H](Cc1c[nH]c2ccccc12)NC(=O)[C@@H](N)CCCN=C(N)N)[C@@H](C)O)C(=O)N[C@@H](CCCCN)C(N)=O [RWLRKWTRKWLK] |  | 16 (≈ 28.1 µg/mL) |  | 16 (≈ 28.1 µg/mL) | 4 (≈ 7.02 µg/mL) | 8 (≈ 14 µg/mL) |  | MIC [7]: 4 µM (≈ 7.02 µg/mL); MIC [9]: 8 µM (≈ 14 µg/mL)
CC[C@H](C)[C@H](N)C(=O)N[C@@H](CCCN=C(N)N)C(=O)N[C@H](C(=O)N[C@@H](CCCN=C(N)N)C(=O)N[C@H](C(=O)N[C@@H](CCCN=C(N)N)C(=O)N1CCC[C@H]1C(=O)N[C@H](C(=O)N[C@@H](CCCN=C(N)N)C(=O)N[C@H](C(=O)N[C@@H](CCCN=C(N)N)C(=O)N[C@H](C(=O)N[C@@H](CCCN=C(N)N)C(=O)N1CCC[C@H]1C(=O)O)[C@@H](C)CC)[C@@H](C)CC)[C@@H](C)CC)[C@@H](C)CC)[C@@H](C)CC [IRIRIRPIRIRIRP] | 16 µM (≈ 29.3 µg/mL) | 64 (≈ 117 µg/mL) |  | 16 (≈ 29.3 µg/mL) | 8 (≈ 14.6 µg/mL) | > 128 | 8 (≈ 14.6 µg/mL) | MIC [12]: 64 µM (≈ 117 µg/mL)
CC[C@H](C)[C@H](N)C(=O)N[C@@H](CCCCN)C(=O)N[C@H](C(=O)N1CCC[C@H]1C(=O)N[C@@H](C)C(=O)N[C@@H](Cc1ccccc1)C(=O)N[C@H](C(=O)N[C@@H](CCCCN)C(=O)N[C@@H](CC(=O)O)C(=O)N[C@H](C(=O)N[C@@H](CC(C)C)C(=O)N[C@@H](CCCCN)C(=O)N[C@@H](CCCCN)C(=O)N[C@H](C(=O)N[C@@H](C)C(=O)N[C@@H](CCCCN)C(=O)NCC(=O)N[C@H](C(=O)N[C@H](C(=O)N[C@@H](CO)C(=O)N[C@@H](C)C(=O)N[C@H](C(=O)N[C@@H](C)C(=O)NCC(=O)N[C@@H](C)C(=O)N[C@@H](CC(C)C)C(=O)N[C@H](C(=O)N[C@@H](CCC(N)=O)C(=O)O)[C@@H](C)O)C(C)C)[C@@H](C)CC)C(C)C)C(C)C)[C@@H](C)O)C(C)C)[C@@H](C)CC [IKIPAFVKDTLKKVAKGVISAVAGALTQ] |  | 20 (≈ 57.4 µg/mL) |  |  |  |  | 20 (≈ 57.4 µg/mL) | MIC [13]: 20 µM (≈ 57.4 µg/mL); MIC [14]: ≥ 80 µM; MIC [15]: 20 µM (≈ 57.4 µg/mL)
